Common to all, as to format: cell-based, human
In experiment [1] the test system is Ubiad1. As to the kind of experiment: qPCR of Ubiad1 mRNA expression in keratinocytes. Particulars: skin keratinocytes, 1 μM (1%) Ubiad1 inducer peptide. The procedure: (§1) Normal human epithelial keratinocytes were isolated from skin obtained from plastic surgery of healthy females who had given written informed consent. Keratinocytes were cultured in keratinocyte serum free medium, with provided human recombinant epidermal growth factor and bovine pituitary extract (Gibco, Auckland, NZ), and 0.1 mg/ml Primocin™ (Invivogen, San Diego, Calif., USA).
Total RNA was extracted using mirVana miRNA isolation kit according to the manufacturer's instructions (Ambion, Austin, Tex., USA). Total RNA was reverse transcribed with the high capacity cDNA reverse transcription kit (Applied Biosystems, Branchburg, N.J., USA). Real-time polymerase chain reaction was performed according to the Taqman method, using the TaqMan Universal PCR Master Mix (Applied Biosystems) with the StepOnePlus Real-time PCR System (Applied Biosystems). Relative expression levels of each target gene were calculated according to the delta-delta-CT method.
A general note: In qPCR the cycle at which signal appears reflects the starting amount.

Experiment [2] deals with keratinocytes. As to the kind of experiment: Cellular ROS measurement with CellROX green in keratinocytes exposed to cumene hydroperoxide. The conditions noted are these: keratinocytes exposed 1 hour to 200 μM cumene hydroperoxide, peptide-treated. The procedure:
(A) Cellular ROS measurement in keratinocyte exposed 1 hour to 200 μM cumene hydroperoxide using the CellIROX green assay (×20 objective lens, scale bar=31 μm).
(B) CellROX quantification graph with One-Way Analysis of Variance, displaying confidence interval means diamonds (green). The line across each diamond represents the group mean. The vertical span of each diamond represents the 95% confidence interval for each group. Grand sample mean is represented by a horizontal black line.
(§2) Primary antibodies used were anti-Ubiad1 (sc-377013, Santa Cruz Biotechnology, Heidelberg, Gennany), anti-Giantin (ab24586, Abcamn, Cambridge, UK), anti-3-Nitrotyrosine (ab61392, Abcam). Alexa Fluor® coupled secondary antibodies were used (Molecular Probes, Eugene, Oreg., USA). Alexa Fluor® 594 Phalloidin probe were used for F-actin detection (A12381, molecular Probes). CellROX Green probe was used for monitoring intracellular ROS (C10444, molecular Probes). C11-BODIPY (581/591) was used for monitoring lipid peroxidation (C10445, Molecular Probes). […]
(§3) All experiments have been repeated, the quantification of the fluorescence was performed by measuring the fluorescent intensity of the staining, which was normalized by cell area. Lipid peroxidation in cells was quantified according to manufacturer guideline with the ratios of the signal from the 590 to 510 channels. […]

For experiment [3], the system named is keratinocytes. In words: Lipid peroxidation (C11-BODIPY) in keratinocytes exposed to cumene hydroperoxide. The conditions noted are these: keratinocytes exposed 1 hour to 200 μM cumene hydroperoxide, peptide-treated. The procedure: (C) Lipid peroxidation in keratinocyte exposed 1 hour to 200 μM cumene hydroperoxide (reduced BODIPY in red; oxidized BODIPY in green) (×20 objective lens, scale bar=31 μm).
(D) Lipid peroxidation quantification graph with One-Way Analysis of Variance, displaying confidence interval means diamonds (green). The line across each diamond represents the group mean. The vertical span of each diamond represents the 95% confidence interval for each group. Grand sample mean is represented by a horizontal black line.
as §2, §3

Experiment [4] concerns Ubiad1. As to the kind of experiment: Immunoblotting of Ubiad1 in keratinocytes. The conditions noted are these: skin keratinocytes, 1 μM (1%) Ubiad1 inducer peptide. The procedure: as §1
Keratinocytes were lysed in RIPA buffer (Thermo Scientific, Rockford, Ill., USA), containing protease inhibitor cocktail and EDTA (Thermo Scientific). The protein concentration was determined using the BCA Protein Assay Kit (Thermo Scientific) and equal amounts of total protein were loaded on a 4 to 12% NuPAGE Bis-Tris Gel (Invitrogen) and transferred onto a nitrocellulose membranes using the iBlot dry blotting system (Invitrogen). Non specific binding sites were blocked, and membranes were then labeled with appropriate antibodies and developed using the SuperSignal West Femto Maximum Sensitivity Substrate kit (Thermo Scientific).

For experiment [5], the system named is keratinocytes. In words: Transmission electron microscopy of peptide-treated keratinocytes. Particulars: cultured keratinocytes, peptide 1 tLM, 48 hours. The protocol: as §1
Cultured keratinocytes, treated with the peptide at 1 tLM concentration for 48 hours were fixed in Karnovsky's solution (Emsdiasum, Hatfield, Pa., USA) for 1 h at room temperature, and left for 12 h at 4° C. Cells were then carefully scrapped off the petridish, pelleted with a brief centrifugation, and washed with 0.1 M sodium cacodylate buffer. Pellets were routinely osmicated, dehydrated in a graded series of ethanol, and infiltrated with; and embedded in, a low viscocity epon-epoxy resin. Ultrathin sections of silver-gray interference color were cut and double-stained with uranyl acetate and lead citrate and then examined in a Zeiss 10 transmission electron microscope. Microphotographs were taken with a Gatan digital camera (Gatan, Pleasanton, Calif., USA).

We go through one substance from patent US20190269596A1, “COSMETIC USE AND METHOD FOR IMPROVING PHYSIOLOGICAL FUNCTIONS OF THE SKIN BY INCREASING THE EXPRESSION OF UBIAD1” (ISP Investments LLC, priority 2016, published 2019).

Where no end group is shown, it is not given here.

“Ala-Val-Leu-Ala-Gly-NH2 (AVLAG-NH2) [Ubiad1 inducer peptide, artificially synthesized Ubiad1 inducer peptide]”: in the experiment on Ubiad1 [1], the “increase of expression of Ubiad1 measured by qPCR” value is “+102%”. In addition, the “resistance to ROS accumulation” value with keratinocytes [2] is listed as “more resistant to ROS accumulation”. Moreover, the “resistance to lipid peroxidation” value with keratinocytes [3] was “more resistant”. For the same substance, in the experiment on Ubiad1 [4], the “increase of expression of Ubiad1 measured by immunoblotting” value is on record as “+53%”. In addition, in the experiment with keratinocytes [5], the “cell morphology: mitochondrial and Golgi content of the cells” value is “large scale increase in the mitochondrial and Golgi content of the cells”.
